Laboratory results from ChEMBL document CHEMBL5226282, “TLR2 Agonistic Small Molecules: Detailed Structure-Activity Relationship, Applications, and Future Prospects” (J Med Chem, 2021).
*1 amine or outer side, *2 acyl side, *3 side chain or, on linkers, in order; H or OH if unused. Where a SMILES comes first, the peptide text is derived from it. [ ]: non-standard residue; d: D form. The star is where a group is joined. X1 = CCCCCCCCCCCCCCCC(=O)OCC(CCCC(N[*:1])C(=O)[*:2])OC(=O)CCCCCCCCCCCCCCC; X2 = CCCCCCCCCCCCCCCC(=O)OCC(C*)OC(=O)CCCCCCCCCCCCCCC; Palmitoyl = CCCCCCCCCCCCCCCC(=O)*

What was measured:
[1] = target: T1, Toll-like receptor 1/2 (Homo sapiens, UniProt O60603+Q15399); assay: Agonist activity at TLR2/TLR1 (unknown origin) assessed as induction of IL-8 production relative to control; assay type: protein-complex assay; details: filed as agonist
[2] = target: TLR2/TLR6 (Homo sapiens) (UniProt O60603+Q9Y2C9); assay: Agonist activity at TLR2/TLR6 (unknown origin) assessed as induction of IL-8 production relative to control; assay type: protein-complex assay
[3] = target: T2, Toll-like receptor 2 (Homo sapiens, UniProt O60603); assay: Agonist activity at human TLR2 transfected in HEK293 cells relative to control; assay type: cell-based
[4] = target: T2, Toll-like receptor 2; assay: Agonist activity at human TLR2 transfected in HEK293 cells; assay type: cell-based
[5] = target: T2, Toll-like receptor 2; assay: Agonist activity at TLR2 (unknown origin)
[6] = target: T2, Toll-like receptor 2; assay: Binding affinity to TLR2 (unknown origin)
[7] = target: T1, Toll-like receptor 1/2; assay: Agonist activity at TLR2/TLR1 (unknown origin); assay type: protein-complex assay

T2 sequence (O60603 whole entry): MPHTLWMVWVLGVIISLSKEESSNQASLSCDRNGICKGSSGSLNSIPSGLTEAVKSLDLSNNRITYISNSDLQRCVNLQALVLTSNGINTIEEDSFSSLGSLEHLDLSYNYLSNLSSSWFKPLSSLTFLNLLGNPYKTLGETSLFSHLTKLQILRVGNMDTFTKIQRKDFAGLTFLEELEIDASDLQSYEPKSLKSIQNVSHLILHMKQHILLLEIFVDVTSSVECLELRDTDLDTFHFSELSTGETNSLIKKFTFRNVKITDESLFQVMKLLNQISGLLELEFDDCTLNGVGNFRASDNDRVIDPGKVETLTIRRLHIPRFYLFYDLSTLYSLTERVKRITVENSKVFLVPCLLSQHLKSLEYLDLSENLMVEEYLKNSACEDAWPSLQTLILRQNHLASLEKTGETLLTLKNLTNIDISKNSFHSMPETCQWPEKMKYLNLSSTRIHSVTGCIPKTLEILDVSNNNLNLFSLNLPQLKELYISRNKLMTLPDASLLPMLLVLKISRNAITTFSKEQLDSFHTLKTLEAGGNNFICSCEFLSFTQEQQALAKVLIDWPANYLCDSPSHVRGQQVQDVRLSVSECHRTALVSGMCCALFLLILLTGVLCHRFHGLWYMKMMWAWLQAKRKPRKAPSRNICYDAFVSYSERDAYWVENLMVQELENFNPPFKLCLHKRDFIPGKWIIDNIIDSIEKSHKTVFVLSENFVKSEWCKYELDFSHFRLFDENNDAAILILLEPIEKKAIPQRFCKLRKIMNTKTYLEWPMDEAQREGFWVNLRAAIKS
T1 sequence (O60603 whole entry): as above
T1 sequence (Q15399 whole entry): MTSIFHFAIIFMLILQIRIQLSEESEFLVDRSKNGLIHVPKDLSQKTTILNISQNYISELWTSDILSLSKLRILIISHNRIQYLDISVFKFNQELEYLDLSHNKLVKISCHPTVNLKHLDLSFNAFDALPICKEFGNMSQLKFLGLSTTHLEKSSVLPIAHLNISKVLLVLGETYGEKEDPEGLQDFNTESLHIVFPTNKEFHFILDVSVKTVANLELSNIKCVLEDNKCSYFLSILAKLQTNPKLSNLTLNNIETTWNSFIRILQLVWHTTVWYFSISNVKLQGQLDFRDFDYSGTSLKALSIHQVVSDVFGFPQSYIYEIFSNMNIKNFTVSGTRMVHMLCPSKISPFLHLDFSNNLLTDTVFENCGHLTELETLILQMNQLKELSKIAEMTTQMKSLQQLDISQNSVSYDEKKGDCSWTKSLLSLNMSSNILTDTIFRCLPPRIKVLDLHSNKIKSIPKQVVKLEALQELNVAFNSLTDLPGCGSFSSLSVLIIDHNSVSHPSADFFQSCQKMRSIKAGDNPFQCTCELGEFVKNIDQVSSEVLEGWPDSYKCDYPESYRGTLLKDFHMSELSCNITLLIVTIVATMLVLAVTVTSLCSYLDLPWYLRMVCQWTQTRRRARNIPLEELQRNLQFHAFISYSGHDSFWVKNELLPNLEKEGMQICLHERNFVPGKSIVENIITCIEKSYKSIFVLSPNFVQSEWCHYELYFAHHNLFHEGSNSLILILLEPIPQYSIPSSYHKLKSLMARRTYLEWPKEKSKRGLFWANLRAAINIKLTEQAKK

An Activity [1] of 112% was found for `CCCCCCCCCCCCCCCC(=O)N[C@@H](CSCC(COC(=O)CCCCCCCCCCCCCCC)OC(=O)CCCCCCCCCCCCCCC)C(=O)N[C@@H](CCCNC(=N)N)C(=O)N1CCC[C@H]1C(=O)N[C@@H](CC(=O)O)C(=O)N[C@@H](CCCNC(=N)N)C(=O)N[C@@H](Cc1ccc(O)cc1)C(N)=O` (stereo partly specified) (Palmitoyl-C(X2)RPDRY-NH2) in this work.

An Activity [2] of 23% was found for `CCCCCCCCCCCCCCCC(=O)NC(CCCC(COC(=O)CCCCCCCCCCCCCCC)OC(=O)CCCCCCCCCCCCCCC)C(=O)N[C@@H](CO)C(=O)N[C@@H](CO)C(=O)N[C@@H](CC(N)=O)C(=O)N[C@@H](C)C(=O)N[C@@H](CO)C(=O)N[C@@H](CCCCN)C(=O)N[C@@H](CCCCN)C(=O)N[C@@H](CCCCN)C(=O)N[C@@H](CCCCN)C(=O)O` (stereo partly specified) (Palmitoyl-[X1]SSNASKKKK-OH) in this work.

An Activity [1] of 93% was found for `CCCCCCCCCCCCCCCC(=O)N[C@@H](CSCC(COC(=O)CCCCCCCCCCCCCCC)OC(=O)CCCCCCCCCCCCCCC)C(=O)N[C@@H](CCC(N)=O)C(=O)N1CCC[C@H]1C(=O)N[C@@H](CC(=O)O)C(=O)N[C@@H](CCCNC(=N)N)C(=O)N[C@@H](Cc1ccc(O)cc1)C(N)=O` (stereo partly specified) (Palmitoyl-C(X2)QPDRY-NH2) in this work.

An EC50 [3] of 6.3 nM and an EC50 [4] of 6.3 nM were found for `CCCCCCCCCCCCCC(=O)OC[C@H](CSC[C@@H](N)C(=O)NCCOCCOCCOCCP(=O)(O)O)OC(=O)CCCCCCCCCCCCC` in this work.

An EC50 [3] of 830 nM and an EC50 [4] of 830 nM were found for `CCCCCCCCCCNC(=O)OC[C@H](CSC[C@@H](NC(C)=O)C(=O)NCCOCCOCCOCCP(=O)(O)O)OC(=O)NCCCCCCCCCC` in this work.

An EC50 [3] of 2640 nM and an EC50 [4] of 2640 nM were found for `CCCCCCCCCCCCCCCC(=O)N[C@H](CSC[C@@H](COC(=O)NCCCCCCCCCC)OC(=O)NCCCCCCCCCC)C(=O)NCCOCCOCCOCCP(=O)(O)O` in this work.

An IC50 [5] of 361 nM and a Ki [6] of 16 nM were found for `CCCCCCCCCCCCCCCC(=O)OCCSC[C@H](NC(=O)COCC(=O)NCCCOCCOCCOCCCNc1ccc(C2=C(/C=C/C3=[N+](CC)c4ccccc4C3(C)C)CCC/C2=C\C=C2\N(CCC)c3ccccc3C2(C)C)cc1)C(=O)NCC(=O)N[C@H](CO)C(=O)COCC(=O)NCCCOCCOCCOCCCN` in this work.

An EC50 [3] of 830 nM and an EC50 [4] of 830 nM were found for `CCCCCCCCCCNC(=O)OC[C@H](CSC[C@@H](NC(=O)CCCCC)C(=O)NCCOCCOCCOCCP(=O)(O)O)OC(=O)NCCCCCCCCCC` in this work.

An EC50 [5] of 20 nM and a Ki [6] of 91 nM were found for `CCCCCCCCCCCCCCCC(=O)OC[C@H](CSC[C@H](NC(=O)COCC(=O)NCCCOCCOCCOCCCNC(C)=O)C(=O)NCC(=O)N[C@H](CO)C(=O)COCC(=O)NCCCOCCOCCOCCCN)OC(=O)CCCCCCCCCCCCCCC` in this work.

An EC50 [7] of 2510 nM was found for `CNc1ccc([N+](=O)[O-])cc1-n1cnc(-c2ccc([N+](=O)[O-])cc2)c1` in this work.

In the case of `CCCCCCCCCCCC[C@H](CSC[C@@H](N)C(=O)NCCOCCOCCOCCP(=O)(O)O)OC(=O)NCCCCCCCCCCC`, the EC50 [3] is reported as > 100000 nM and the EC50 [4] is reported as > 100000 nM.

An EC50 [7] of 5200 nM was found for `CNc1ccc([N+](=O)[O-])cc1-n1cnc(-c2ccc(C(F)(F)F)cc2)c1` in this work.

An EC50 [5] of 674 nM and a Ki [6] of 22 nM were found for `CCCCCCCCCCCCCCCC(=O)OCCSC[C@H](NC(=O)COCC(=O)NCCCOCCOCCOCCCNC)C(=O)NCC(=O)N[C@H](CO)C(=O)COCC(=O)NCCCOCCOCCOCCCN` in this work.
